Columns and labels:
Assay in all cases: relative viability (nuclei count vs DMSO), 5 days (fraction); higher = more cells survive
[1] = test system: NCI-H520
In short: (§1)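 Medians of duplicate plates are given as relative viability. That measure is the nuclei count in treated wells divided by the count in vehicle wells. Counts were taken on 4× images of lung cancer cell lines in 1536-well plates, 5 days after pin-tool dosing the day after seeding with one drug alone or a fixed anchor-drug dose plus five library-drug doses (not always all listed) in √10 steps.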

[2] = test system: NCI-H2170
In short: as §1

[3] = test system: HOP-62
In short: as §1

[4] = test system: NCI-H1793
In short: as §1

[5] = test system: NCI-H23
In short: as §1

[6] = test system: SW 1573
In short: as §1

[7] = test system: PC-14
In short: as §1

[8] = test system: NCI-H2023
In short: as §1

[9] = test system: LOU-NH91
In short: as §1

[10] = test system: NCI-H2405
In short: as §1

[11] = test system: EPLC-272H
In short: as §1

[12] = test system: NCI-H2009
In short: as §1

[13] = test system: HCC-44
In short: as §1

[14] = test system: NCI-H441
In short: as §1

[15] = test system: NCI-H460
In short: as §1

[16] = test system: NCI-H727
In short: as §1

[17] = test system: ChaGo-K-1
In short: as §1

[18] = test system: NCI-H650
In short: as §1

[19] = test system: NCI-H647
In short: as §1

[20] = test system: LCLC-103H
In short: as §1

[21] = test system: NCI-H1437
In short: as §1

[22] = test system: NCI-H2126
In short: as §1

[23] = test system: EMC-BAC-2
In short: as §1

[24] = test system: NCI-H2347
In short: as §1

[25] = test system: SW 900
In short: as §1

CCCCCCCCCCCC1=C(O)C(=O)C=C(O)C1=O [Embelin] + O=C(CCCCCCC(=O)Nc1ccccc1)NO [Vorinostat] (partner 1 µM) showed a relative viability ([1]; first compound 0.08 µM) of 0.741, a relative viability ([1]; first compound 0.8 µM) of 0.816 and a relative viability ([1]; first compound 2.53 µM) of 0.75. For the same molecule, the relative viability ([1]; first compound 8 µM) was 0.573, the relative viability ([2]; first compound 0.08 µM) was 0.773 and the relative viability ([2]; first compound 0.8 µM) was 0.784. The relative viability ([2]; first compound 2.53 µM) was 0.922, the relative viability ([2]; first compound 8 µM) was 0.754 and the relative viability ([3]; first compound 0.08 µM) was 0.634. The relative viability ([3]; first compound 0.8 µM) was 0.812, the relative viability ([3]; first compound 2.53 µM) was 0.504 and the relative viability ([3]; first compound 8 µM) was 0.527. For the same molecule, the relative viability ([4]; first compound 0.08 µM) was 0.728, the relative viability ([4]; first compound 0.8 µM) was 0.842 and the relative viability ([4]; first compound 2.53 µM) was 0.754. It also gave a relative viability ([4]; first compound 8 µM) of 0.439, a relative viability ([5]; first compound 0.08 µM) of 0.58 and a relative viability ([5]; first compound 0.8 µM) of 0.604. The relative viability ([5]; first compound 2.53 µM) was 0.584, the relative viability ([5]; first compound 8 µM) was 0.433 and the relative viability ([6]; first compound 0.08 µM) was 0.7. The relative viability ([6]; first compound 0.8 µM) was 1.1, the relative viability ([6]; first compound 2.53 µM) was 0.817 and the relative viability ([6]; first compound 8 µM) was 0.716. It also gave a relative viability ([7]; first compound 0.08 µM) of 0.746, a relative viability ([7]; first compound 0.8 µM) of 0.886 and a relative viability ([7]; first compound 2.53 µM) of 0.586. For the same molecule, the relative viability ([7]; first compound 8 µM) was 0.948, the relative viability ([8]; first compound 0.08 µM) was 0.622 and the relative viability ([8]; first compound 0.8 µM) was 0.701. The relative viability ([8]; first compound 2.53 µM) was 0.565, the relative viability ([8]; first compound 8 µM) was 0.392 and the relative viability ([9]; first compound 0.08 µM) was 0.939. For the same molecule, the relative viability ([9]; first compound 0.8 µM) was 1.2, the relative viability ([9]; first compound 2.53 µM) was 0.933 and the relative viability ([9]; first compound 8 µM) was 0.876. It also gave a relative viability ([10]; first compound 0.08 µM) of 1.01, a relative viability ([10]; first compound 0.8 µM) of 1.13 and a relative viability ([10]; first compound 2.53 µM) of 0.95. It also gave a relative viability ([10]; first compound 8 µM) of 0.899, a relative viability ([11]; first compound 0.08 µM) of 0.372 and a relative viability ([11]; first compound 0.8 µM) of 0.62. For the same molecule, the relative viability ([11]; first compound 2.53 µM) was 0.471, the relative viability ([11]; first compound 8 µM) was 0.363 and the relative viability ([12]; first compound 0.08 µM) was 0.748. The relative viability ([12]; first compound 0.8 µM) was 0.837, the relative viability ([12]; first compound 2.53 µM) was 0.705 and the relative viability ([12]; first compound 8 µM) was 0.748. The relative viability ([13]; first compound 0.08 µM) was 1.09, the relative viability ([13]; first compound 0.8 µM) was 1.08 and the relative viability ([13]; first compound 2.53 µM) was 1.12. For the same molecule, the relative viability ([13]; first compound 8 µM) was 1.2, the relative viability ([14]; first compound 0.08 µM) was 0.691 and the relative viability ([14]; first compound 0.8 µM) was 0.905. It also gave a relative viability ([14]; first compound 2.53 µM) of 0.841, a relative viability ([14]; first compound 8 µM) of 0.657 and a relative viability ([15]; first compound 0.08 µM) of 0.687. For the same molecule, the relative viability ([15]; first compound 0.8 µM) was 0.948, the relative viability ([15]; first compound 2.53 µM) was 0.933 and the relative viability ([15]; first compound 8 µM) was 0.397. The relative viability ([16]; first compound 0.08 µM) was 1.31, the relative viability ([16]; first compound 0.8 µM) was 1.11 and the relative viability ([16]; first compound 2.53 µM) was 1.32. The relative viability ([16]; first compound 8 µM) was 1.22, the relative viability ([17]; first compound 0.08 µM) was 0.739 and the relative viability ([17]; first compound 0.8 µM) was 0.782. It also gave a relative viability ([17]; first compound 2.53 µM) of 0.871, a relative viability ([17]; first compound 8 µM) of 0.755 and a relative viability ([18]; first compound 0.08 µM) of 0.393. The relative viability ([18]; first compound 0.8 µM) was 0.557, the relative viability ([18]; first compound 2.53 µM) was 0.354 and the relative viability ([18]; first compound 8 µM) was 0.484. It also gave a relative viability ([19]; first compound 0.08 µM) of 0.58, a relative viability ([19]; first compound 0.8 µM) of 0.985 and a relative viability ([19]; first compound 2.53 µM) of 0.732. The relative viability ([19]; first compound 8 µM) was 0.58, the relative viability ([20]; first compound 0.08 µM) was 0.851 and the relative viability ([20]; first compound 0.8 µM) was 0.885. It also gave a relative viability ([20]; first compound 2.53 µM) of 0.75, a relative viability ([20]; first compound 8 µM) of 0.714 and a relative viability ([21]; first compound 0.08 µM) of 0.83. For the same molecule, the relative viability ([21]; first compound 0.8 µM) was 0.943, the relative viability ([21]; first compound 2.53 µM) was 0.853 and the relative viability ([21]; first compound 8 µM) was 0.392. For the same molecule, the relative viability ([22]; first compound 0.08 µM) was 0.803, the relative viability ([22]; first compound 0.8 µM) was 0.763 and the relative viability ([22]; first compound 2.53 µM) was 0.796. The relative viability ([22]; first compound 8 µM) was 0.6, the relative viability ([23]; first compound 0.08 µM) was 0.344 and the relative viability ([23]; first compound 0.8 µM) was 0.561. The relative viability ([23]; first compound 2.53 µM) was 0.257, the relative viability ([23]; first compound 8 µM) was 0.269 and the relative viability ([24]; first compound 0.08 µM) was 0.557. The relative viability ([24]; first compound 0.8 µM) was 0.628, the relative viability ([24]; first compound 2.53 µM) was 0.513 and the relative viability ([24]; first compound 8 µM) was 0.656. The relative viability ([25]; first compound 0.08 µM) was 0.604, the relative viability ([25]; first compound 0.8 µM) was 0.718 and the relative viability ([25]; first compound 2.53 µM) was 0.538. The relative viability ([25]; first compound 8 µM) was 0.315.
